How the values were obtained:
[1] = test system: Barley; experiment: Phytotoxicity of herbicide/safener combinations in cereals, glasshouse post-emergence; assay type: in vivo; settings: no safener, 4 weeks after treatment
Procedure: (§1) Various crop plants are grown in plastic pots with a diameter of 9 cm in a glasshouse to the stated stage and then treated with the particular herbicide or with a mixture of the herbicide and the safener by the post-emergence method. This entails the herbicide of the formula (A) and the compounds of the formula (B) being applied in the form of aqueous suspensions or emulsions with a water application rate which converts to 300 l/ha. 4 weeks after the treatment, the plants are assessed visually for every type of damage by the applied herbicides, taking particular account of the extent of persistent growth inhibition. The evaluation takes place in percentages (scale from 0 to 100%) compared with untreated controls.

[2] = test system: Wheat; experiment: as above; assay type: in vivo; settings: no safener, 4 weeks after treatment
Procedure: as §1

[3] = test system: ALMY; experiment: Herbicidal activity on grasses, post-emergence; assay type: in vivo, Alopecurus myosuroides; settings: no safener, 4-leaf stage
Procedure: as §1

[4] = test system: APSP; experiment: Herbicidal activity on grasses, post-emergence; assay type: in vivo, Apera spica-venti; settings: no safener, 4-leaf stage
Procedure: as §1

[5] = test system: AVFA; experiment: Herbicidal activity on grasses, post-emergence; assay type: in vivo, Avena fatua; settings: no safener, 4-leaf stage
Procedure: as §1

[6] = test system: POAN; experiment: Herbicidal activity on grasses, post-emergence; assay type: in vivo, Poa annua; settings: no safener, 4-leaf stage
Procedure: as §1

SMILES	Phytotoxicity Barley ([1]; dose A 10 g AS/ha) [%]	Phytotoxicity Barley ([1]; dose A 20 g AS/ha) [%]	Phytotoxicity Wheat ([2]; dose A 10 g AS/ha) [%]	Phytotoxicity Wheat ([2]; dose A 20 g AS/ha) [%]	Phytotoxicity Barley ([1]; dose A 40 g AS/ha) [%]	Phytotoxicity Wheat ([2]; dose A 40 g AS/ha) [%]	% effect on ALMY ([3]; dose A 10 g AS/ha) [%]	% effect on ALMY ([3]; dose A 20 g AS/ha) [%]	% effect on ALMY ([3]; dose A 40 g AS/ha) [%]	% effect on APSP ([4]; dose A 10 g AS/ha) [%]	% effect on APSP ([4]; dose A 20 g AS/ha) [%]	% effect on APSP ([4]; dose A 40 g AS/ha) [%]	% effect on AVFA ([5]; dose A 10 g AS/ha) [%]	% effect on AVFA ([5]; dose A 20 g AS/ha) [%]	% effect on AVFA ([5]; dose A 40 g AS/ha) [%]	% effect on POAN ([6]; dose A 10 g AS/ha) [%]	% effect on POAN ([6]; dose A 20 g AS/ha) [%]	% effect on POAN ([6]; dose A 40 g AS/ha) [%]
COC(=O)c1ccc(NC(C)=O)cc1S(=O)(=O)NC(=O)Nc1nc(OC)cc(OC)n1 [A1, N-(4,6-Dimethoxypyrimidin-2-ylaminocarbonyl)-2-methoxycarbonyl-5-acetylaminobenzenesulfonamide]	50	80	25	50														
COC(=O)c1ccc(CN(C)C=O)cc1S(=O)(=O)NC(=O)Nc1nc(OC)cc(OC)n1.[Na] [A2, N-(4,6-Dimethoxypyrimidin-2-ylaminocarbonyl)-2-methoxycarbonyl-5-(N-formyl-N-methylaminomethyl)benzenesulfonamide sodium salt]	40	80	20	60														
COC(=O)c1ccc(NC(C)=O)cc1S(=O)(=O)NC(=O)Nc1nc(OC)cc(OC)n1.[Na] [A3, N-(4,6-Dimethoxypyrimidin-2-ylaminocarbonyl)-2-methoxycarbonyl-5-acetylaminobenzenesulfonamide sodium salt]	60	95	30	65														
CCC(=O)N(C)c1ccc(C(=O)OC)c(S(=O)(=O)NC(=O)Nc2nc(OC)cc(OC)n2)c1.[Na] [A4, N-(4,6-Dimethoxypyrimidin-2-ylaminocarbonyl)-2-methoxycarbonyl-5-(N-methyl-N-propionylamino)benzenesulfonamide sodium salt]		30		15	80	40												
COC(=O)c1ccc(N(C)C(=O)C(C)C)cc1S(=O)(=O)NC(=O)Nc1nc(OC)cc(OC)n1.[Na] [A5, N-(4,6-Dimethoxypyrimidin-2-ylaminocarbonyl)-2-methoxycarbonyl-5-(N-isopropionylmethylamino)benzenesulfonamide sodium salt]		25		5	50	20	95	99	100	98	100	100	85	99	100	98	100	100
COC(=O)NCc1ccc(C(=O)OC)c(S(=O)(=O)NC(=O)Nc2nc(OC)cc(OC)n2)c1.[Na] [A6, N-(4,6-Dimethoxypyrimidin-2-ylaminocarbonyl)-2-methoxycarbonyl-5-(N-methoxycarbonylaminomethyl)benzenesulfonamide sodium salt]		30		15	85	40	99	100	100	99	100	100	80	90	100	99	100	100
